# Measured values taken from patent publication US12239645B2, “Targeted dosing for the treatment of complement mediated disorders” (Achillion Pharmaceuticals, Inc., priority 2018, dated 2025).
# Where “and” joins values, the source holds several entries; their conditions need not be identical. Equal entries are not always repeated.
# Columns and labels:
# [1] = test system: complement alternative pathway (AP) activity; experiment: SAD study: ex vivo serum AP hemolysis assay and PK-PD analysis; format: in vivo, human; settings: for time approximately 90% or greater inhibition maintained after dosing: AP hemolysis
# Experimental: For human serum preparation, venous blood was collected by standard clinical procedures into a Gold Top, SST vacutainer (BD Vacutainer). After clotting at room temperature for 30 minutes or longer, the tube was centrifuged at ˜1,300×g at 4° C. for 15 minutes to separate the serum from the clot. Serum was then aliquotted into pre-chilled cryovials (50-200 μl/vial) for storage at ˜80° C. Each vial was thawed only once and used for each complement related assay, the remaining sample was discarded without further usage. For preparation of plasma, venous blood was collected into a Lavender Top, K2EDTA vacutainer and gently inverted several times to allow for complete mixing of the blood sample with the anticoagulant. The tube was placed in an ice-bath for 30 minutes and then centrifuged for 15 minutes at ˜1300×g at 4° C. to separate the plasma from the blood cells. Plasma was divided into aliquots in pre-chilled cryogenic storage tubes and stored at a ˜80° C. freezer within one hour of having collected the blood sample. For delivery, tubes containing either serum or plasma were shipped in the presence of dry ice without additional freeze-thaw cycle.
# Ex vivo serum AP hemolysis assays were conducted in 96-well microtiter plates divided into two parts, one for hemolysis and the other for serum background color subtraction. Briefly, a suspension of rabbit red blood cells (RBCs) was centrifuged at 800×g at 4° C. for 3 minutes and the supernatant was removed to get rid of the RBC debris. The RBC cell pellet was re-suspended gently with pre-chilled gelatin veronal buffer (GVB0) containing 10 mM MgEGTA to a density of 5×10^8 cells/mL. Other controls including buffer, spontaneous rabbit RBC lysis, 100% RBC lysis (in water), and normal serum control were set up alongside the test samples as well. Serum was placed in a 37° C. water-bath until mostly thawed and immediately transferred to ice bath. 20% serum was prepared with GVB0-MgEGTA buffer and kept at ice bath before testing. Reactions were carried out in a 96 well plate by mixing 50 μl of 20% serum with equal volume of GVB0-MgEGTA buffer and then quickly adding 20 μl of RBC suspension. The plate was shaken on a microtiter plate shaker for 5 seconds and then incubated at 37° C. for 30 minutes. Halfway during the incubation period, the plate was shaken for another 5 seconds as described above. At the end of the incubation, the plate was centrifuged at 800×g at 4° C. for 3 minutes to pellet the un-lysed rabbit RBCs. 80 μl of supernatant was removed carefully from all wells and transferred to a clear flat-bottom microtiter plate for the measurement of optical absorbance at 405 nm (A405) in a Molecular Devices Spectramax Plus plate reader. AP hemolysis in each well was calculated relative to the activity of the NHS reference sample formulas as follows: Hemolysis (%)=((Hm−Bk)−(Sp−Bf))/((NH−BkNH)−(Sp−Bf))×100%
# where Hm=A405 in the hemolysis well, Bk=A405 in the corresponding background well, Sp=mean A405 in the spontaneous hemolysis wells, Bf=mean A405 in the buffer alone wells, NH=mean A405 in the reference NHS wells, and BkNH=mean A405 in the corresponding background wells.
# The PK-PD relationship was evaluated using time-matched plasma Compound 1 concentrations and serum AP inhibition values by non-linear regression with GraphPad Prism (La Jolla, CA) using the following two models: • 1. […] Pharmacodynamic and Pharmacokinetic Results AP Activity Measured with AP Hemolysis […]
# [2] = test system: complement alternative pathway (AP) functional activity; experiment: SAD study: alternative pathway functional activity by AP Wieslab assay; format: in vivo, human
# Experimental: (§1) […] were dosed and evaluated in 4 dose groups with ten subjects receiving placebo (Table 1). The first dose group had 6 active and 6 placebo subjects; subsequent groups had 6 active and 2 placebo subjects each. Each group was followed for 28 days after dosing. All subjects were monitored for safety through the last scheduled visit at Day 28. Blood and urine samples were collected at predefined time points from Days 1 to 4 to determine plasma and urine concentrations of Compound 1 and from Days 1 to 7 to determine complement related activities. Results of serum AP activity measured by AP Wieslab assay as well as plasma Bb, factor D level and several other PD biomarkers were determined.
# For all subjects, blood samples were collected at specific protocol-defined time points from Day 1 to 7 to determine serum AP activity ex vivo using AP hemolysis assay and AP Wieslab assay.
# A graphical display of mean complement AP functional activity (% relative to positive control) through Day 7 (reported in days) and within 24 hours of dosing (by randomized treatment group and overall) can be found in FIG. 8B and FIG. 8A, respectively.
# [3] = test system: complement alternative pathway (AP) activity; experiment: Steady-state / PK-PD modeling of AP inhibition versus plasma concentration; design: species or system human
# Experimental: Based on the ex vivo AP inhibition assay, a steady state model was prepared comparing the % inhibition of Ap based on drug plasma concentration. […] Therefore, Compound 1 is shown to be potent while still having improved safety margins that may allow for better dosing flexibility.
# [4] = test system: fD, C3, C4, classical pathway (CP) function; experiment: Other complement assays (fD, C3, C4 serum concentration, serum total CP function); format: in vivo, human
# Experimental: as §1
# Serum AP hemolysis activity was assessed in samples collected from all cohorts at predefined time points from Day 1 (pre-dose) through Day 21. Intense sampling was obtained on Day 1 (0 h to 12 h), Day 7 (0 h to 12 h), and Day 14 (0 h to 16 h); all other serum samples were collected at 0 h (morning PK troughs) on the indicated days. […] Serum complement AP activity measured ex vivo by the AP Wieslab assay, serum total complement classical pathway (CP) activity, plasma complement Bb concentrations, and serum FD, C3, and C4 concentrations were also measured at predefined time points.
structure (smiles),measurement,setting,value
"CC(=O)c1nn(CC(=O)N2[C@H](C(=O)Nc3nc(Br)ccc3C)C[C@@]3(C)C[C@@H]23)c2ccc(-c3cnc(C)nc3)cc12 [Compound 1, (1R,3S,5R)-2-(2-(3-acetyl-5-(2-methylpyrimidin-5-yl)-1H-indazol-1-yl)acetyl)-N-(6-bromo-3-methylpyridin-2-yl)-5-methyl-2-azabicyclo[3.1.0]hexane-3-carboxamide]",time approximately 90% or greater inhibition maintained after dosing,"[1]; Group 1, 40 mg single dose",at least 4 hours
same,time approximately 90% or greater inhibition maintained after dosing,"[1]; Groups 2 and 3, 80 and 120 mg single dose",at least 8 hours
same,EC50,"[1]; Homo sapiens, simple Emax model, all SAD dose cohorts, read-out: EC50 (plasma concentration vs serum AP inhibition)",0.0111 µg/mL
same,EC50 (plasma concentration vs serum AP inhibition),"[1]; simple Emax model, all SAD dose cohorts",~0.01 µg/mL and 0.011 µg/mL
same,inhibition of AP activity after dosing,"[1]; single dose 40, 80 or 120 mg, all groups",complete inhibition
same,time mean inhibition of 90% or greater maintained post-dosing,[2]; 40 mg dose group,at least 6 hours
same,time of nadir in AP functional activity post-dose,[2]; 40 mg dose group,1.5 h
same,lowest mean (±SD) AP functional activity (relative to positive control),[2]; 40 mg single dose,1.25 (±1.153) %
same,time of nadir in AP functional activity post-dose,[2]; 80 mg and 120 mg dose groups,3 h
same,lowest mean (±SD) AP functional activity (relative to positive control),[2]; 80 mg single dose,0.13 (±0.097) %
same,lowest mean (±SD) AP functional activity (relative to positive control),[2]; 120 mg single dose,0.09 (±0.102) %
same,Inhibition of AP functional activity,"[2]; all subjects, by 2 hours post-dose",> 90%
same,Inhibition of AP functional activity,"[2]; all treated subjects, 0.5 hours post-dose",> 80%
same,time mean inhibition of 90% or greater maintained post-dosing,[2]; higher dose groups studied,at least 10 hours
same,inhibition of AP activity,[3]; at Ctrough of 65 ng/mL to 95 ng/mL,greater than 85%
same,AP inhibition,[3]; at Ctrough of about 88 ng/mL,> 90%
same,AP inhibition,[3]; at Ctrough of about 67-88 ng/mL,greater than 90%
same,EC90 (plasma concentration providing about 90% AP activity inhibition),[3]; modeling,0.067 to 0.088 µg/mL
same,IC90 of AP activity (Ctrough for 90% inhibition),"[3]; steady-state modeling from SAD ex vivo AP inhibition, FIG. 10",about 67 ng/mL
same,"change in serum CP activity and serum factor D, C3, C4 concentrations","[4]; MAD study single-dose cohorts (240 mg fasted, 120 mg fed)",no significant changes
same,"change in fD, C3, C4 serum concentration and serum total CP function","[4]; SAD, single dose up to 120 mg, vs baseline and placebo",no significant changes
